Source: patent publication US20190224195A1, “Oral Capsule Composite Formulation of Dutasteride and Tadalafil” (Yuyu Pharma, Inc., priority 2016, published 2019)
≈ marks a conversion by molar mass, not a printed value. Each block holds one compound with its values, some of them ahead of it.

Tests used:
[1] = Solubility test in various oils; assay type: physicochemical; conditions: for solubility at 24 h: oil or lipid, thermodynamic from solid; for solubility at 24 h / Solubility of Tadalafil: room temperature, 24 hours of stirring
Description: Dutasteride and tadalafil were measured for solubility in various oils comprising soybean oil, castor oil, polyoxyl 6 apricot kernel oil, propyleneglycol monolaurate, propyleneglycol monocaprylate, glyceryl caprylate/caprate. In a 10-mL vial, 3 mL of an oil was stirred at room temperature with a magnetic bar during which about 100 mg of the main ingredient was added, followed by stirring at 500 rpm or higher. After 24 hours of stirring, centrifugation was carried out and the supernatant thus formed was taken and subjected to liquid chromatography to quantitate the main ingredient dissolved in the oil phase.

[2] = Solubility test according to surfactant; assay type: physicochemical; conditions: for solubility according to surfactants (in words): in PEG 6 glyceryl caprylate/caprate and PEG 8 caprylic/capric glyceride; for solubility at 24 h: organic solvent or mixture, thermodynamic from solid

- solubility at 24 h ([1]; in Castor oil, read-out: Solubility of Dutasteride): 1500 µg/mL (≈ 2.84 mM)
- solubility at 24 h ([1]; in Glyceryl caprylate/caprate, read-out: Solubility of Dutasteride): 14300 µg/mL (≈ 27.1 mM)
- solubility at 24 h ([1]; in Polyoxyl 6 apricot kernel oil, read-out: Solubility of Dutasteride): 2550 µg/mL (≈ 4.82 mM)
- solubility at 24 h ([1]; in Propylene glycol monocaprylate, read-out: Solubility of Dutasteride): 26300 µg/mL (≈ 49.7 mM)
- solubility according to surfactants (in words) [2]: high solubility
- solubility at 24 h ([2]; in PEG 6 glyceryl carpylate/caprate, read-out: Dutasteride Solubility): 3550 µg/mL (≈ 6.72 mM)
- solubility at 24 h ([2]; in PEG 8 caprylic/capric glyceride, read-out: Dutasteride Solubility): 3860 µg/mL (≈ 7.3 mM)
- solubility at 24 h ([2]; in PEG 35 castor oil, read-out: Dutasteride Solubility): 1990 µg/mL (≈ 3.77 mM)
- solubility at 24 h ([2]; in Poloxamer 124, read-out: Dutasteride Solubility): 1120 µg/mL (≈ 2.12 mM)
- solubility at 24 h ([2]; in Polysorbate 60, read-out: Dutasteride Solubility): 1770 µg/mL (≈ 3.35 mM)
- solubility at 24 h ([2]; in Polysorbate 80, read-out: Dutasteride Solubility): 1360 µg/mL (≈ 2.57 mM)
Compound: C[C@]12C=CC(=O)N[C@@H]1CC[C@@H]1[C@@H]2CC[C@]2(C)[C@@H](C(=O)Nc3cc(C(F)(F)F)ccc3C(F)(F)F)CC[C@@H]12 [Dutasteride, 17β-N-(2,5-bis(trifluoromethyl))phenylcarbomoyl-4-aza-5α-androst-1-en-3-one]

- Solubility of Tadalafil ([1]; in Glyceryl caprylate/caprate): 4130 µg/mL
- Solubility of Tadalafil ([1]; in Polyoxyl 6 apricot kernel oil): 1120 µg/mL
- fold greater solubility than the other oils ([1]; in glyceryl caprylate/caprate and propylene glycol monocaprylate versus castor oil, soybean oil, polyoxyl 6 apricot kernel oil): ≥ 4 fold
- solubility at 24 h ([1]; in Propylene glycol monocaprylate, read-out: Solubility of Tadalafil): 4610 µg/mL (≈ 11.8 mM)
- solubility according to surfactants (in words) [2]: high solubility
- solubility at 24 h ([2]; in PEG 6 glyceryl carpylate/caprate, read-out: Tadalafil Solubility): 9130 µg/mL (≈ 23.4 mM)
- solubility at 24 h ([2]; in PEG 8 caprylic/capric glyceride, read-out: Tadalafil Solubility): 8810 µg/mL (≈ 22.6 mM)
- solubility at 24 h ([2]; in PEG 35 castor oil, read-out: Tadalafil Solubility): 8100 µg/mL (≈ 20.8 mM)
- solubility at 24 h ([2]; in Poloxamer 124, read-out: Tadalafil Solubility): 6230 µg/mL (≈ 16 mM)
- solubility at 24 h ([2]; in Polysorbate 60, read-out: Tadalafil Solubility): 10700 µg/mL (≈ 27.6 mM)
- solubility at 24 h ([2]; in Polysorbate 80, read-out: Tadalafil Solubility): 9650 µg/mL (≈ 24.8 mM)
Compound: CN1CC(=O)N2[C@H](c3ccc4c(c3)OCO4)c3[nH]c4ccccc4c3C[C@@H]2C1=O [Tadalafil, 6R-trans-6-(1,3-benzodioxol-5-yl)-2,3,6,7,12,12a-hexahydro-2-methyl-pyrazino [1′,2′:1,6]pyrido[3,4-b]indole-1,4-dione]
